Calls of active or inactive are those of the source.
How the values were obtained:
[1] = biological target: 26S proteasome non-ATPase regulatory subunit 14 (Homo sapiens, UniProt O00487); experiment: inhibition of proteasome subunit RPN11 – biochemical, fluorescence polarization, uHTS hits, confirmation (AID 602368); assay type: functional
[2] = biological target: 72 kDa type IV collagenase (Homo sapiens, UniProt P08253); experiment: Dose Response validation of uHTS RPN11 inhibitor hits using a MMP-2 Fluorescence assay.; assay type: functional
Chain of 72 kDa type IV collagenase (P08253 whole entry): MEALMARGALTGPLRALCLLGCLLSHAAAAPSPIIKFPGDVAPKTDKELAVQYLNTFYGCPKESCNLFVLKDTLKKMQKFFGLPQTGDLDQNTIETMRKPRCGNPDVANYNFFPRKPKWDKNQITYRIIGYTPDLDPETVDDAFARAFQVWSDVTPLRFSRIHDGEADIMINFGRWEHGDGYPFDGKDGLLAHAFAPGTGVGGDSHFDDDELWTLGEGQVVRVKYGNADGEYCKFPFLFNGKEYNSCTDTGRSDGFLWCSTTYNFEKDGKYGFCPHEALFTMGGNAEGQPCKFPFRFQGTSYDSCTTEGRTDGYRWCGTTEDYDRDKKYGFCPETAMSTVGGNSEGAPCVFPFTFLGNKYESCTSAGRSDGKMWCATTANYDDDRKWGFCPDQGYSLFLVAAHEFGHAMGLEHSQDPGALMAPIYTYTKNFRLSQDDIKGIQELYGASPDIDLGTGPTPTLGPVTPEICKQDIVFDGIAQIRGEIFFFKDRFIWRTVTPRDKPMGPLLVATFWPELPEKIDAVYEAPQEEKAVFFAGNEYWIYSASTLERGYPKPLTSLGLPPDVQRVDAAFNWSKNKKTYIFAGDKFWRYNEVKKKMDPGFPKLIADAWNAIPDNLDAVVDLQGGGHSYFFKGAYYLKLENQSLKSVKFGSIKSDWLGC

Prothrombin = Prothrombin (Bos taurus, UniProt P00735); experiment: thrombin protease inhibitors – biochemical, fluorescence polarization, uHTS hits, dose response (AID 602369); assay type: functional
[3] = Luminescence Cell-Based Dose Retest to Confirm Inhibitors of Cancer Stem Cells. [Related pubchem assays (depositor defined):AID2717, AID2721]; assay type: functional; details: Homo sapiens
cells [4] = assay type: functional
[5] = biological target: T1, Endoribonuclease toxin MazF (Escherichia coli K-12, UniProt P0AE70); experiment: activation of MazEF endoribonuclease cleavage – biochemical, fluorescence, single-stranded RNA substrate, uHTS hits, dose response (AID 588481); assay type: functional
T1 sequence (P0AE70 whole entry): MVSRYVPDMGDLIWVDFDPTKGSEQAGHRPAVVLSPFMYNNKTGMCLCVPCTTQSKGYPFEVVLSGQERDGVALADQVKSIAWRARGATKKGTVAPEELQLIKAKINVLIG

[6] = biological target: T1, Endoribonuclease toxin MazF; experiment: substrate-only fluorescence increase artefacts – biochemical, single-stranded RNase substrate, counter-screen for MazEF activator project, dose response (AID 588502); assay type: functional
[7] = biological target: Glucose-6-phosphate 1-dehydrogenase (Homo sapiens, UniProt P11413); experiment: inhibition of Homo sapiens G6PD, dose series – biochemical, fluorescence, selectivity assay for P. falciparum G6PD inhibitor project, dose response (AID 504792); assay type: functional
Chain of Glucose-6-phosphate 1-dehydrogenase (P11413 whole entry): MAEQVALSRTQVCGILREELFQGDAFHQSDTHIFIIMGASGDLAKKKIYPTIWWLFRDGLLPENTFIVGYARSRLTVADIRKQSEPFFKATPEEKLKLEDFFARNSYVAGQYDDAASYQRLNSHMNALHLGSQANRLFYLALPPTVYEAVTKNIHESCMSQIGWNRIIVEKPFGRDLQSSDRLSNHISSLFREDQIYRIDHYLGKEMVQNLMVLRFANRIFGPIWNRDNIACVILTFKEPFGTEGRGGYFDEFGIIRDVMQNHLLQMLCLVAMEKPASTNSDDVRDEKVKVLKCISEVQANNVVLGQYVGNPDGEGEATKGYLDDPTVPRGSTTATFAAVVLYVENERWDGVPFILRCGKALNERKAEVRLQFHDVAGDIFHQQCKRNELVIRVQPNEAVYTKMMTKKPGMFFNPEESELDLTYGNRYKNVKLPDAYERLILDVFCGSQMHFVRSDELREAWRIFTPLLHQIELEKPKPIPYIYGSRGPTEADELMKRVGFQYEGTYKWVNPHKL

[8] = biological target: T2, Tyrosine-protein phosphatase non-receptor type 11 (Homo sapiens, UniProt Q06124); experiment: PTPN11 enzyme inhibitors – biochemical, selectivity assay for STEP inhibitor project, dose response (AID 602367); assay type: functional; details: read-out: IC50_Mean
T2 sequence (Q06124 whole entry): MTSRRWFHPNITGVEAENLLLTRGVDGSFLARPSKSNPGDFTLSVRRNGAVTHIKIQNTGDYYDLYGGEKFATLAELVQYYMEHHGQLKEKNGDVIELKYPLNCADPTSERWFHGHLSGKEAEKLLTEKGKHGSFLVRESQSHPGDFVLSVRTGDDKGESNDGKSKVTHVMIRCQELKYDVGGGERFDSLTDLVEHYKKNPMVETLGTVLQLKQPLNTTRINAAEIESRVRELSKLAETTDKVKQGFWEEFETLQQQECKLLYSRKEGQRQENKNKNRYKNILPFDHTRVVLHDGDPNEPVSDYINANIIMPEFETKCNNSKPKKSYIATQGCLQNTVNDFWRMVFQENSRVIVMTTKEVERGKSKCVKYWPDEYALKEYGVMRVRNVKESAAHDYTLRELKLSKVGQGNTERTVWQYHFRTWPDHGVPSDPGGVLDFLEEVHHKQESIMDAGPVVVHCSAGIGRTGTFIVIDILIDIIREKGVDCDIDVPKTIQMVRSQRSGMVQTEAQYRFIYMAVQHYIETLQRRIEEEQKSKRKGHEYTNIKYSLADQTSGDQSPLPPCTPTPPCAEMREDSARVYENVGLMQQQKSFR

[9] = biological target: T3, Tyrosine-protein phosphatase non-receptor type 5 (Homo sapiens, UniProt P54829); experiment: PTPN5 enzyme inhibition – biochemical, fluorescence intensity, uHTS hits, confirmation (AID 602372); assay type: functional; details: read-out: IC50_Mean
T3 sequence (P54829 whole entry): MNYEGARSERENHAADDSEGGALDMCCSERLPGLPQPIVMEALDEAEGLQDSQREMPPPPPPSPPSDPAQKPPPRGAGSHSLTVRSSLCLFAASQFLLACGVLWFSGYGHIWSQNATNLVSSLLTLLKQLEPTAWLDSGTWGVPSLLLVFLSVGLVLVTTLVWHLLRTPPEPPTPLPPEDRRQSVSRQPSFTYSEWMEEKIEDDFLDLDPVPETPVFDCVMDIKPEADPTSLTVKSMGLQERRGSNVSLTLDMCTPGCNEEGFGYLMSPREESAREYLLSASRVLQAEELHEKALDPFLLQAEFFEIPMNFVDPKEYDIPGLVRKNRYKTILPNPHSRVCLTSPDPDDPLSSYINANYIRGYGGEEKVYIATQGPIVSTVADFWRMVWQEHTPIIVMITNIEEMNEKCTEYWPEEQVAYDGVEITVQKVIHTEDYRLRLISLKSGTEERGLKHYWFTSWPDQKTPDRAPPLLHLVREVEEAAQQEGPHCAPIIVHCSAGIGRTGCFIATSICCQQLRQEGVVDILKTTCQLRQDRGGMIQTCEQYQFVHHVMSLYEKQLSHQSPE

[10] = biological target: Dual specificity protein phosphatase 3 (Homo sapiens, UniProt P51452); experiment: VHR phosphatase inhibition, dose response, selectivity assay for STEP inhibitor project, biochemical (AID 602374); assay type: functional; details: read-out: IC50_Mean
Chain of Dual specificity protein phosphatase 3 (P51452 whole entry): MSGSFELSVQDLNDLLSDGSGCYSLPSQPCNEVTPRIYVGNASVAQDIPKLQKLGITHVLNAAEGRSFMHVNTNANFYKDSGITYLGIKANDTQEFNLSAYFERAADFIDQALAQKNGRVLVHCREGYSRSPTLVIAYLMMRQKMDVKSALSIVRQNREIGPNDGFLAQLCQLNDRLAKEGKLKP

[11] = biological target: T4, Sentrin-specific protease 8 (Homo sapiens, UniProt Q96LD8); assay type: functional
T4 sequence (Q96LD8 whole entry): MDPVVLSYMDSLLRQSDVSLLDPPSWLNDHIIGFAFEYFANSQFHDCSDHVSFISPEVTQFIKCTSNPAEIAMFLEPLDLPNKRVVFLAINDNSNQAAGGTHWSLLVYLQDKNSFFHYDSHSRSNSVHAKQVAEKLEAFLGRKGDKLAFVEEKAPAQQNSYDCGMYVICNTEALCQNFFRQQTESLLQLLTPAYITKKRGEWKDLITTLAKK

[12] = biological target: T4, Sentrin-specific protease 8; assay type: functional; remark: listed apart in the source
[13] = bead-based luminescence quenchers, dual-tagged ARNT – biochemical, AlphaScreen, cherry-pick, artefact control for ARNT-TACC3 interaction inhibitor project, dose response (AID 651705); assay type: functional;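 further: AlphaScreen bead proximity signal that flags compounds interfering with the detection technology; potency reflects signal decrease which marks the compound as an assay artifact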
[14] = luciferase reporter signal suppression in cells – H4 neuroglioma cells, luminescence, dose response (AID 1990); assay type: functional, cell-based
[15] = Luminescence Cell-Based Dose Response HTS to Identify Inhibitors of 5'UTR Stem-Loop Driven Prion Protein mRNA Translation in H4 Neuroglioblastoma Cells. [Related pubchem assays: 1827 (Project Summary), 1813 (Primary HTS)]; assay type: functional
[16] = alpha-synuclein stem-loop luciferase translation blockers – H4 neuroglioma cells, luminescence, confirmation (AID 1988); assay type: functional, cell-based
[17] = biological target: T5, Ubiquitin-conjugating enzyme E2 N (Homo sapiens, UniProt P61088); assay type: functional;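 further: Dose-response confirmation in a TR-FRET assay detecting UBC13-driven polyubiquitin chain formation, inhibition measured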
T5 sequence (P61088 whole entry): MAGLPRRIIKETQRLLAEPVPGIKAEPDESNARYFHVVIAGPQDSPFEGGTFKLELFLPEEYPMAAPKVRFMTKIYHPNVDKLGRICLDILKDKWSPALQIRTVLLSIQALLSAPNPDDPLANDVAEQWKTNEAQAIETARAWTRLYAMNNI

[18] = biological target: T6, DNA repair and recombination protein RAD54-like (Homo sapiens, UniProt Q92698); experiment: RAD54 Holliday junction migration blockers – biochemical, fluorescence, cherry-picked samples, dose series, confirmation (AID 651657); assay type: functional
T6 sequence (Q92698 whole entry): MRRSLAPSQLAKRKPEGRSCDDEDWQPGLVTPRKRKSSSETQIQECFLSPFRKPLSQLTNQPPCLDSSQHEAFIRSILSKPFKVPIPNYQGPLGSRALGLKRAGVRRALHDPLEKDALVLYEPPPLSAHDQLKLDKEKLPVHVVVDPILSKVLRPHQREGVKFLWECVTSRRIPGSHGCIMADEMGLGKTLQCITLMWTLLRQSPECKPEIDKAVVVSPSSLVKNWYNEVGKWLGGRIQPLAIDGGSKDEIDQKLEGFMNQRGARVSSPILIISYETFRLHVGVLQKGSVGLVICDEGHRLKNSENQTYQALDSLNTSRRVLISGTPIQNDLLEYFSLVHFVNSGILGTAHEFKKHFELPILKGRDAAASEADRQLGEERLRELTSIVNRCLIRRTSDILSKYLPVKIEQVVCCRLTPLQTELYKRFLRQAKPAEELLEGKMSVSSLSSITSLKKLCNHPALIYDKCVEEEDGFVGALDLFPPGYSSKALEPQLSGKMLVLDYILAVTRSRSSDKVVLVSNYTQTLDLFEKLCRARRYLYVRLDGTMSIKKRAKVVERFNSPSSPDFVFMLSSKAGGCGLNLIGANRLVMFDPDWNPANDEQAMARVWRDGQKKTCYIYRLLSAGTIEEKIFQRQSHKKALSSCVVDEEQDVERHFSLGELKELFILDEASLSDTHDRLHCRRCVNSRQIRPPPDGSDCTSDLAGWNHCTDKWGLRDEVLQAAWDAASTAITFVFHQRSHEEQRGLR

[19] = NIH-3T3 fibroblast cytotoxicity, dose response, cytotoxicity control, cell-based, fluorescence, Alamar Blue, secondary assay (AID 2327); assay type: functional;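 further: NIH-3T3 mouse fibroblasts cultured with fluconazole at 8 µg/mL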
[20] = fluconazole-exposed Candida albicans growth modulators – fluorescence, retest, confirmation (AID 2467); assay type: functional, cell-based
[21] = microbe, parasite or virus in culture; assay type: functional; details: Mycobacterium tuberculosis
[22] = biological target: Heat shock protein HSP 90-alpha (Homo sapiens, UniProt P07900); assay type: functional, organism-based
[23] = test system: Streptococcus sp. 'group A'; experiment: Streptococcus pyogenes SK(-)GAS viability under kanamycin – luminescence, BacTiterGlo, confirmation, counter-screen for streptokinase expression inhibitor project, dose response (AID 1900); assay type: functional, organism-based
Streptococcus = experiment: GAS UMAA2166 growth inhibition – luminescence, BacTiterGlo, counter-screen for streptokinase expression inhibitor project, dose response (AID 1915); assay type: functional, organism-based;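 further: potency for reduction of bacterial viability or growth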
INS1 = experiment: INS-1E survival protection against cytokine death – cell-based, luminescence, retest, dose response (AID 449756); assay type: functional; details: Rattus norvegicus;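 further: cell death triggered by IL-1 beta plus TNF-alpha plus IFN-gamma mixture; protective hits raise ATP signal compared with cytokine alone wells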
cells [24] = assay type: functional, cell-based
[25] = Trypanosoma cruzi growth suppression in host cells – NIH3T3 host cells, beta-gal luminescence, confirmation (AID 2044); assay type: functional, cell-based;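 further: intracellular parasites grown in NIH/3T3 mouse fibroblasts as host cells; luminescent beta-galactosidase reporter signal from transgenic T. cruzi replicating inside host cells; inhibitors lower the luminescence signal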
cells [26] = assay type: functional, cell-based; remark: listed apart in the source
[27] = NIH3T3 cell viability loss – ATP luminescence, mouse fibroblasts, counter-screen, dose response (AID 2010); assay type: functional, cell-based;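 further: cells exposed to compound for about 90 hours before reading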
H9c2 = experiment: cells; assay type: functional, cell-based; details: Rattus norvegicus, H9c2, Myocardium;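 further: confirmatory concentration-response retest of ultra-high-throughput screening hits for modulation of myocardial damage; cell death induced by hydrogen peroxide oxidative stress; compound pretreatment for 60 min then peroxide exposure for 2 h; potency is for protecting the cells against peroxide damage rather than for killing them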

Chain of 26S proteasome non-ATPase regulatory subunit 14 (O00487 whole entry): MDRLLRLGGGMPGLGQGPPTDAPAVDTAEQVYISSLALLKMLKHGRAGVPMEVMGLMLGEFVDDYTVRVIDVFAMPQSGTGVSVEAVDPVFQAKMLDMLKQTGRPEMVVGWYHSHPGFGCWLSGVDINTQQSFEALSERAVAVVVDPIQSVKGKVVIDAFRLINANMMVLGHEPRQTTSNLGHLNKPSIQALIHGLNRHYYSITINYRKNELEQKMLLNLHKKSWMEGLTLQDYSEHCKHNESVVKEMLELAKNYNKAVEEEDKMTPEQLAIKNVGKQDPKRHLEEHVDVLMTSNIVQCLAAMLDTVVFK

SMILES: CCOc1cc(/C=C2\SC(=S)N(NC(=O)c3cccnc3)C2=O)ccc1O
- IC50 [1]: 25.8 µM (active)
- IC50 [2]: > 100 µM (inactive)
- IC50 (Prothrombin): 35.7 µM (active)

SMILES: CC(C)OC(=O)c1c2c(n3ccccc13)C(=O)c1ccccc1C2=O
- AC50 [3]: 2.17 µM (active)
- IC50 (cells [4]): 0.44 µM (active)
- EC50 [5]: > 99 µM (inactive)
- EC50 [6]: > 99 µM (inactive)

SMILES: Cc1cc(C)c2c(N)c(C(=O)N/N=C/c3cccs3)sc2n1
- IC50 [1]: 8.64 µM (active)
- IC50 [2]: > 100 µM (inactive)
- IC50 (Prothrombin): 35.8 µM (active)

SMILES: OCCN1CCN(C(=S)c2ccc(Cl)c(Cl)c2)CC1
- IC50 [7]: > 80 µM (inactive)
- IC50 [8]: 1.99 µM (active)
- IC50 [9]: 8.95 µM (active)
- IC50 [10]: 0.339 µM (active)
- IC50 [11]: 18.4 µM (active)
- IC50 [12]: 10.8 µM (active)
- AC50 [13]: 132 µM (active)

SMILES: COC(=O)c1c(NC(=O)c2nc3ccccc3s2)sc2c1CC(C)(C)NC2(C)C
- EC50 [14]: 8.05 µM (active)
- EC50 [15]: 8.33 µM (active)
- EC50 [16]: 8.54 µM (active)
- IC50 [17]: > 20 µM (inactive)
- EC50 [5]: > 99 µM (inactive)
- EC50 [6]: > 99 µM (inactive)

SMILES: O=C(C1=C(O)C(=O)N(CCCO)C1c1ccc(Br)cc1)c1ccc(Br)cc1 (centres undefined)
- IC50 [8]: 58.9 µM (inactive)
- IC50 [9]: 36.2 µM (inactive)
- IC50 [10]: 73.4 µM (inactive)

SMILES: CCCCN(CC)CCCN=C(S)Nc1ccc2nc(N3CCN(CC)CC3)cc(C)c2c1
- AC50 [18]: 25.7 µM (active)

SMILES: O=C(/C=C/c1cc(Br)ccc1O)c1ccco1
- EC50 [19]: > 150 µM (inconclusive)
- EC50 [20]: 2.26 µM (active)
- CC50 [21]: 7.21 µM (active)
- AC50 [22]: 7.73 µM (active)

SMILES: O=C(N/N=C/c1cc([N+](=O)[O-])ccc1O)c1cc(-c2ccccc2)nc2ccccc12
- EC50 [23]: 1.83 µM (active)
- EC50 (Streptococcus): 2.65 µM (active)
- AC50 (INS1): 1.24 µM (active)
- IC50 [1]: 14.8 µM (active)
- IC50 [2]: > 100 µM (inactive)
- IC50 (Prothrombin): 10.7 µM (active)

SMILES: CC(C)[C@H](NC(=O)c1ccccc1Cl)C(=O)Nc1nc(-c2ccccn2)cs1
- EC50 (cells [24]): 24 µM (active)
- EC50 [25]: 2.23 µM (active)
- EC50 (cells [26]): > 350 µM (not active)
- EC50 [27]: 11.7 µM (active)
- IC50 (H9c2): 8.83 µM (active)
- AC50 [13]: 73.8 µM (active)

SMILES: CCOC(=O)c1c(NC(=O)c2ccc(S(=O)(=O)N3CCOCC3)cc2)sc2c1CCN(C(C)C)C2
- AC50 [18]: 8.89 µM (active)

— ChEMBL document CHEMBL1201862, “PubChem BioAssay data set” (2004)
